This passage reports EC50 results from US8741910B2, “Soluble guanylate cyclase activators” (Merck Sharp & Dohme Corp., priority 2008, dated 2014).

The experiment deals with T1, sGC α1/β1 heterodimer (Homo sapiens, UniProt Q02108+Q02153).
T1 construct: expressed in transfected cells; host or cells: CHO-K1 (clone #7, CHO-K1/sGC)
T1 sequence (Q02108 1-690): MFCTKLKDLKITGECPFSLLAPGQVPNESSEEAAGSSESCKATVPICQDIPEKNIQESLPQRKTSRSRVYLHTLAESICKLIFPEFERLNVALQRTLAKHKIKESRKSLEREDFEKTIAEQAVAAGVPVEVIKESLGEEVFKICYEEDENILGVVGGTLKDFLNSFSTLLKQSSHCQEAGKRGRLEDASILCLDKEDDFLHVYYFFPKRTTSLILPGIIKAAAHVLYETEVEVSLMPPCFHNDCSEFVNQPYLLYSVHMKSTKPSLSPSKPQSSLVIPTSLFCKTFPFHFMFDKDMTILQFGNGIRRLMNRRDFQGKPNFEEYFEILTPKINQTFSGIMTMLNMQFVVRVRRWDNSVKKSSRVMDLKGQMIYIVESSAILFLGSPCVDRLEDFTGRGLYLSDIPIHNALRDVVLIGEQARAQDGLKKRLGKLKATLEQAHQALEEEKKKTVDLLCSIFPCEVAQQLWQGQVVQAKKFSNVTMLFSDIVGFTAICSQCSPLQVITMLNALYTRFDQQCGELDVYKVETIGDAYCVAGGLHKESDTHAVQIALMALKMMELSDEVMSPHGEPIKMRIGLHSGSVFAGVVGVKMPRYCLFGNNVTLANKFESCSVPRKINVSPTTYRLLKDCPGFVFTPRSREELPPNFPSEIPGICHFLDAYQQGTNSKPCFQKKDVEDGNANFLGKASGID
T1 sequence (Q02153 1-619): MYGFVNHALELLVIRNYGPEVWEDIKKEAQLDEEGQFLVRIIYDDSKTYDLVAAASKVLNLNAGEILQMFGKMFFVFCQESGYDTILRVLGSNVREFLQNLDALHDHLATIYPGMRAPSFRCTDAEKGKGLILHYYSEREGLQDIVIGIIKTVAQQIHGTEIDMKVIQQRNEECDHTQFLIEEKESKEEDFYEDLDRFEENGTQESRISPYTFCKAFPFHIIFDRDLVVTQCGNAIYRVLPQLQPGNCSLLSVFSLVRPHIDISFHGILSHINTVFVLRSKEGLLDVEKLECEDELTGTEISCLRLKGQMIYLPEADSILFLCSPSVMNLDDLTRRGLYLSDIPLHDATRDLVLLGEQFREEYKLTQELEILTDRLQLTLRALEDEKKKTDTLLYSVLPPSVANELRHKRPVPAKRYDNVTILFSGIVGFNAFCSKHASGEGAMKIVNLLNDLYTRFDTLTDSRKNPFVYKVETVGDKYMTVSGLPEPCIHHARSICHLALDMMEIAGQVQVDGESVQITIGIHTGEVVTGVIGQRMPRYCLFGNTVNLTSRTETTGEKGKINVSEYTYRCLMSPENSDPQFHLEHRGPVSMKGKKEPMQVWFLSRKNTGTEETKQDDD
The experiment in a line: Cell-Based sGC Functional Assay (CASA Assay). The note with it: CHO-K1/sGC cells, intracellular cGMP by HTRF, 1 hr at 37 °C. From the text: Increases in cGMP levels affect several physiological processes including vasorelaxation through multiple downstream pathways. […] Heme-dependent activators (HDAs) preferentially activate sGC containing a ferrous heme group. To determine the effect of sGC activators on enzyme activity, the CASA assay was developed to monitor the generation of cGMP in a cell line that stably expresses the heterodimeric sGC protein.
A CHO-K1 cell line stably expressing the sGC α1/β1 heterodimer was generated using a standard transfection protocol. CHO-K1 cells were transfected with plasmids pIREShyghsGCα1 and pIRESneo-hsGCβ1 simultaneously using FUGENE reagent. Clones that stably express both subunits were selected with hygromycin and neomycin for ˜2 weeks. Clone #7 was chosen for the assay and was designated CHO-K1/sGC. CHO-K1/sGC cells were maintained in F-K12 medium containing 10% heat-inactivated Fetal Bovine Serum (FBS), 100 μg/mL penicillin/streptomycin, 0.5 mg/mL hygromycin and 0.25 mg/mL G418. […] IBMX (3-isobutyl-1-methylxanthin, 0.5 mM) was added to inhibit degradation of cGMP. Compounds were diluted from DMSO stock solutions and added to the assay at a final DMSO concentration of 1%. […] At the end of the incubation period, the reaction was terminated and the cells were lysed. The level of intracellular cGMP was determined using an HTRF-based assay kit (CisBio, 62GM2PEC), which detects the displacement of a fluorescence labeled cGMP from its specific antibody.
Consider `CC1(C)C(=O)Nc2nc(-c3nc(Cc4c(F)ccc(F)c4F)n4cc(Cl)ccc34)nc(N)c21` [Example 59, 4-amino-2-[6-chloro-3-(2,3,6-trifluorobenzyl)imidazo[1,5-a]pyridin-1-yl]-5,5-dimethyl-5,7-dihydro-6H-pyrrolo[2,3-d]pyrimidin-6-one], for which the EC50 (as a rule, the concentration at which the effect is half-maximal) worked out at 24 nM. The same measure for `CC1(C)C(=O)Nc2nc(-c3nc(Cc4c(F)ccc(F)c4F)n4cc(F)ccc34)nc(N)c21` [Example 60, 4-amino-2-[6-fluoro-3-(2,3,6-trifluorobenzyl)imidazo[1,5-a]pyridin-1-yl]-5,5-dimethyl-5,7-dihydro-6H-pyrrolo[2,3-d]pyrimidin-6-one]: 31 nM; for `CC1(C)C(=O)Nc2nc(-c3nn(CCC(F)(F)C(F)(F)F)c4cc(Cl)ccc34)nc(N)c21` [Example 111, 4-amino-2-[6-chloro-1-(3,3,4,4,4-pentafluorobutyl)-1H-indazol-3-yl]-5,5-dimethyl-5,7-dihydro-6H-pyrrolo[2,3-d]pyrimidin-6-one]: 83 nM.
